Source: patent publication US20220401483A1, “COMBINATION OF A T CELL THERAPY AND (S)-3-[4-(4-MORPHOLIN-4-YLMETHYL-BENZYLOXY)-L-OXO-L,3-DIHYDRO-ISOINDOL-2-YL]-PIPERIDINE-2,6-DIONE” (Juno Therapeutics, Inc., priority 2019, published 2022)

Key:
Type in all cases: cell-based, human
[1] = system: anti-CD19 CAR T cells; assay: RNA-seq gene expression of anti-CD19 CAR T cells sorted from tumor spheroids
Method: Gene expression analysis of anti-CD19 CAR T cells sorted from tumor spheroids 5 days after co-culture as described above was analyzed by RNA sequencing (RNA-seq) on the complementary DNA (cDNA) samples prepared from the RNA isolated from the long-term stimulated CAR-expressing T cells or on CAR-expressing T cells that had not undergone the long-term stimulation. Libraries for RNA-seq were sequenced on Illumina NextSeq system. Reads were mapped to the human reference genome GRCh38, and gene expression levels were quantified in Array Studio. Differential expression (DE, for RNA-seq) analysis was performed using DESeq2.
The dots on the top left quadrant represent genes induced by chronic stimulation and the dots on the lower right quadrant represent genes reversed by Compound A.
Pathway enrichment analysis of the differentially expressed genes were performed using clusterProfiler.
Gene expression analysis by RNA-seq was carried out substantially as described in Example 3.

[2] = system: Granta-519 tumor spheroids; assay: Spheroid tumor growth assay after chronic stimulation with concurrent treatment
Method: CAR T cells that had been stimulated for 6 days with anti-ID concurrently in the presence of Compound A (0.001 μM or 0.01 μM) were co-cultured with by incubation with Granta-519 tumor spheroids, and CAR T cell cytolytic function and cytokine function were assessed at various time points. For comparison, cytolytic activity was also assessed for cells that had been similarly chronically stimulated with anti-ID in the presence of 1 μM or 0.1 μM Compound B. Averaged measurement of tumor spheroid size at various times following co-culture with CAR-T cells was monitored.
(§1) Cytokines (IFNγ, IL-2 and TNFalpha) were measured from supernatant of the chronically stimulated CAR T cells above that had been co-cultured for 5 days with CD19 tumor spheroids. The log 2 fold change compared to control cells (chronically stimulated cells that had not been concurrently treated with Compound A immunomodulatory compound) is shown in FIG. 3F.

[3] = system: RL CD19+ tumor cells; assay: Acute cytolytic activity, anti-CD19 CAR T cells co-cultured with RL CD19+ tumor cells
Method: Anti-CD19 CAR T cells were co-cultured with RL CD19+ tumor cells at an effector to target (E:T) ratio of 1:1, in the presence of (S)-3-[4-(4-morpholin-4-ylmethyl-benzyloxy)-1-oxo-1,3-dihydro-isoindol-2-yl]-piperidine-2,6-dione (Compound A) (0.001 μM, 0.01 μM or 0.1 μM). Acute cytolytic activity was measured by tumor cell number over time. […] Co-culture of CAR T cells with RL resistant tumor cells in the presence of Compound A improved cytolytic CAR T cell function, […]

[4] = system: anti-CD19 CAR T cells; assay: Intracellular cytokine staining of acutely stimulated anti-CD19 CAR T cells; settings: 3 days, 30 μg/mL agonistic anti-CAR antibody
Method: Effector and proliferative activity of anti-CD19 CAR T cells were assessed following incubation in the presence of absence of Compound A. Anti-CD19 CAR+ T cell compositions were generated as described in Example 1.
The anti-CD19 CAR T cells were stimulated with agonistic antibody against the CAR (30 μg/mL; WO2018/023100) while being treated with vehicle control (ctrl) or Compound A. Intracellular cytokines were measured using intracellular cytokine staining (ICS) after 3 days of treatment. FIG. 7A show a heatmap of cytokine expression as depicted based on log 2-fold change in mean fluorescence intensity (MFI) of cytokines relative to vehicle control in culture.

[5] = system: A549.CD19 tumor spheroids; assay: A549.CD19 tumor spheroid model, rescue treatment of chronically stimulated CAR T cells
Method: An A549.CD19 tumor spheroid model was further used to elucidate the T cell modulatory activity of the compounds. A549.CD19 tumor spheroid growth is insensitive to monotherapy treatment with the immunomodulatory compounds. CAR T cells that had been stimulated for 6 days with anti-ID were co-cultured by incubation with A549.CD19 tumor spheroids, in the presence of presence of Compound A (0.001 μM, 0.01 μM, or 0.1 μM). Averaged measurement of tumor spheroid size at Day 9 following co-culture with CAR-T cells was assessed. […] The number of CAR T cells in co-cultures with tumor spheroids, measured at day 5, were increased with treatment with Compound A (FIG. 5B).
as §1, with “with” for “with Compound A”, “5E.” for “3F.”

O=C1CC[C@H](N2Cc3c(OCc4ccc(CN5CCOCC5)cc4)cccc3C2=O)C(=O)N1 [Compound A, (S)-3-[4-(4-morpholin-4-ylmethyl-benzyloxy)-1-oxo-1,3-dihydro-isoindol-2-yl]-piperidine-2,6-dione]
expression changes in genes of T cell function pathways after chronic stimulation ([1]; concurrent treatment): can be reversed | expression changes in genes of T cell function pathways after chronic stimulation ([1]; rescue treatment): can also be reversed | cytolytic function, average tumor volume after 9 days [2]: significantly increased cytolytic function | cytolytic function, Granta-519 spheroid growth ([2]; 0.001 μM or 0.01 μM): improved cytolytic function | IFNγ in co-culture supernatant ([2]; 5 days co-culture with spheroids): statistically significant increase | improvement in cytolytic function compared with Compound B ([2]; Compound B 1 μM or 0.1 μM): greater | sensitivity of RL tumor cell line to monotherapy ([3]; 0.01 μM or 0.1 μM): sensitive | cytolytic CAR T cell function against RL tumor cells ([3]; co-culture, E:T 1:1, 0.001, 0.01 or 0.1 μM): improved | effector cytokine production (ICS, MFI vs vehicle) [4]: potentiates | number of CAR T cells in co-cultures with tumor spheroids ([5]; day 5, 0.01 μM or 0.1 μM): increased | CAR T cell cytolytic function, A549.CD19 spheroid growth ([5]; rescue, 0.001, 0.01 or 0.1 μM, Day 9): improved | IFNγ in co-culture supernatant ([5]; rescue, 5 days co-culture with spheroids): statistically significant increase
